Data: PubChem BioAssay (NCI)
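Results reflect a 48-hour exposure of cells in 96-well plates to compound at five concentrations. TGI is the concentration that stops growth completely.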

Tests used:
Experiment in all cases: NCI tumour cell line growth inhibition, 48 h
OVCAR-5 ovarian = tested on: OVCAR-5 ovarian
KM12 colon = tested on: KM12 colon
HOP-18 NSCLC = tested on: HOP-18 NSCLC
MOLT-4 leukemia = tested on: MOLT-4 leukemia
COLO 205 colon = tested on: COLO 205 colon
NCI-H23 lung = tested on: NCI-H23 lung
SN12C renal = tested on: SN12C renal
SF-268 CNS = tested on: SF-268 CNS
DMS 114 small cell lung = tested on: DMS 114 small cell lung
SF-539 CNS = tested on: SF-539 CNS
MCF7 breast = tested on: MCF7 breast
UACC-257 melanoma = tested on: UACC-257 melanoma
SK-MEL-5 melanoma = tested on: SK-MEL-5 melanoma
DLD-1 colon = tested on: DLD-1 colon
A549 NSCLC = tested on: A549 NSCLC
SNB-75 CNS = tested on: SNB-75 CNS
SK-MEL-28 melanoma = tested on: SK-MEL-28 melanoma
MALME-3M melanoma = tested on: MALME-3M melanoma
UO-31 renal = tested on: UO-31 renal
NCI/ADR-RES ovarian = tested on: NCI/ADR-RES ovarian
RPMI-8226 leukemia = tested on: RPMI-8226 leukemia
SN12K1 renal = tested on: SN12K1 renal
U251 CNS = tested on: U251 CNS
NCI-H226 lung = tested on: NCI-H226 lung
LOX IMVI melanoma = tested on: LOX IMVI melanoma
SNB-78 CNS = tested on: SNB-78 CNS
DMS 273 small cell lung = tested on: DMS 273 small cell lung
HCT-15 colon = tested on: HCT-15 colon
P388 leukemia = tested on: P388 leukemia
IGROV1 ovarian = tested on: IGROV1 ovarian
M19-MEL melanoma = tested on: M19-MEL melanoma
A498 renal = tested on: A498 renal
CCRF-CEM leukemia = tested on: CCRF-CEM leukemia
SK-OV-3 ovarian = tested on: SK-OV-3 ovarian
NCI-H522 lung = tested on: NCI-H522 lung
OVCAR-4 ovarian = tested on: OVCAR-4 ovarian
SNB-19 CNS = tested on: SNB-19 CNS
NCI-H460 lung = tested on: NCI-H460 lung
HCC-2998 colon = tested on: HCC-2998 colon
P388/ADR leukemia = tested on: P388/ADR leukemia
HOP-62 NSCLC = tested on: HOP-62 NSCLC
EKVX NSCLC = tested on: EKVX NSCLC
UACC-62 melanoma = tested on: UACC-62 melanoma
OVCAR-3 ovarian = tested on: OVCAR-3 ovarian
SF-295 CNS = tested on: SF-295 CNS
K-562 leukemia = tested on: K-562 leukemia
HCT-116 colon = tested on: HCT-116 colon
HT29 colon = tested on: HT29 colon
XF 498 CNS = tested on: XF 498 CNS
SW-620 colon = tested on: SW-620 colon
CAKI-1 renal = tested on: CAKI-1 renal
SK-MEL-2 melanoma = tested on: SK-MEL-2 melanoma
OVCAR-8 ovarian = tested on: OVCAR-8 ovarian
KM20L2 colon = tested on: KM20L2 colon
HOP-92 NSCLC = tested on: HOP-92 NSCLC
RXF 393 renal = tested on: RXF 393 renal

Measured: TGI

CN(C)N=Nc1ccc([N+](=O)[O-])cc1C(N)=O
> 100 µM: OVCAR-5 ovarian | KM12 colon | HOP-18 NSCLC | MOLT-4 leukemia | COLO 205 colon | NCI-H23 lung | SN12C renal | SF-268 CNS | DMS 114 small cell lung | SF-539 CNS | MCF7 breast | UACC-257 melanoma | SK-MEL-5 melanoma | DLD-1 colon | A549 NSCLC | SNB-75 CNS | SK-MEL-28 melanoma | MALME-3M melanoma | UO-31 renal | NCI/ADR-RES ovarian | RPMI-8226 leukemia | SN12K1 renal | U251 CNS | NCI-H226 lung | LOX IMVI melanoma | SNB-78 CNS | DMS 273 small cell lung | HCT-15 colon | P388 leukemia | IGROV1 ovarian | M19-MEL melanoma | A498 renal | CCRF-CEM leukemia | SK-OV-3 ovarian | NCI-H522 lung | OVCAR-4 ovarian | SNB-19 CNS | NCI-H460 lung | HCC-2998 colon | P388/ADR leukemia | HOP-62 NSCLC | EKVX NSCLC | UACC-62 melanoma | OVCAR-3 ovarian | SF-295 CNS | K-562 leukemia | HCT-116 colon | HT29 colon | XF 498 CNS | SW-620 colon | CAKI-1 renal | SK-MEL-2 melanoma | OVCAR-8 ovarian | KM20L2 colon | HOP-92 NSCLC | RXF 393 renal
